Records with an inconclusive call do not appear. The source made the active and inactive calls. How the calls were made is not given here.
Test system: Mycobacterium tuberculosis non-replicating, growth inhibition
Experiment: growth inhibition of non-replicating M. tuberculosis (AID 488890)

SMILES	IC50
OC(COc1ccc2ccccc2c1Br)Cn1ccnc1 (stereo unspecified)	33 µM (inactive)
CC1CCCC(NCC(O)COC(c2ccc(F)cc2)c2ccc(F)cc2)C1C (stereo unspecified)	5.8 µM
O=C(N[C@@H]1C[C@H]2CC[C@@H]1C2)c1ccco1	15.1 µM (inactive)
CCCCCOc1ccc(Br)cc1/C(C)=N/NC1=NCCN1	7.59 µM
O=C(Oc1cccc2cccnc12)c1cccc(-n2cnnn2)c1	22.9 µM (inactive)
O=C(Nc1nnc(C2CC2)o1)c1ccc(S(=O)(=O)N2CCCCC2)cc1	29.8 µM (inactive)
C/C(CC(=O)Nc1ccc(C)c(Cl)c1)=N\NC(=O)c1ccco1	28.8 µM (inactive)
O=C(CCN1CCCCCC1)c1ccccc1	9.1 µM
Cc1ccc(-c2nnc(-c3ccccc3)o2)cc1	1.71 µM
NC(=O)c1ccc(N=Cc2ccc([N+](=O)[O-])s2)cc1	11.8 µM (inactive)
O=C(Cc1ccc(F)cc1)Nc1ccc(Cl)cn1	14.2 µM (inactive)
Cc1ccc(NC(C)C(=O)N/N=C/c2ccc([N+](=O)[O-])s2)cc1 (stereo unspecified)	5.74 µM
O=S(=O)(CCN1CCN(c2ccccn2)CC1)c1ccc(Cl)cc1Cl	8.61 µM
CN(/N=C/c1ccc([N+](=O)[O-])o1)c1ccccc1	13.4 µM (inactive)
Cc1cccc2nc(CSc3nc4cc([N+](=O)[O-])ccc4s3)cn12	18.1 µM (inactive)
O=C(NNc1nc2ccccc2s1)Nc1ccc(F)cc1	14.4 µM (inactive)
c1cncc(-c2noc(CC3CCCCC3)n2)c1	1.25 µM
O=C(Nc1nnc(-c2ccccc2Cl)o1)c1cccnc1	23.2 µM (inactive)
CCN(CC)c1ccc2c(c1)oc(=O)c1c(Cl)cc(=O)oc12	3.7 µM
CNC(C)C#Cc1ccc2oc3cc(C)c(C)cc3c(=O)c2c1 (stereo unspecified)	7.55 µM
O=C1C=CC(=O)N1N(c1ccccc1)c1ccccc1	8.68 µM
O=C(Nc1nnc(-c2ccc(Cl)cc2)o1)c1nc2ccccc2s1	0.25 µM
NC(=O)C1(N2CCCCC2)CCN(C2CC(=O)N(CCc3ccccc3)C2=O)CC1 (stereo unspecified)	13 µM (inactive)
O=C(O)CCCCCN1C(=O)CSC1=S	19.9 µM (inactive)

SMILES	IC50
O=C(Nc1nnc(C2=COCCO2)o1)c1ccc(F)cc1	15.9 µM (inactive)
O=C(CCSc1nnc(-c2ccncc2)o1)Nc1ccc(Cl)cc1	14.7 µM (inactive)
O=[N+]([O-])c1cncc([N+](=O)[O-])c1Nc1cccc(O)c1	22.3 µM (inactive)
O=C(CCN1C(=O)S/C(=C\c2ccc(F)cc2)C1=O)Nc1ccc(C(=O)O)c(O)c1	0.17 µM
Cc1ccc(-n2cc(CNCCc3ncc(C)[nH]3)c(-c3ccc(F)cc3)n2)cc1	17.3 µM (inactive)
Cc1cccc(NC(=O)c2ccc([N+](=O)[O-])s2)n1	0.52 µM
O=C(CCC1CCCCC1)NCc1cccs1	0.27 µM
Clc1cccc2c1Sc1ccccc1CC2N1CCNCC1 (stereo unspecified)	5.98 µM
CCn1c(NC(=O)C2CCCCC2)nc2ccccc21	4.53 µM
COc1ccccc1OCC(=O)N/N=C/C=C/c1ccc([N+](=O)[O-])o1	2.78 µM
COc1ccc(C(=O)CC(=O)C(=O)NCCc2cccc(C)c2)cc1	4.42 µM
Cc1nc([N+](=O)[O-])c(Br)n1CC(=O)c1ccc(Cl)cc1	5.69 µM
O=C(NC1CCCC1)c1nc2c(nnn2Cc2cccc(Cl)c2)c(=O)[nH]1	19.8 µM (inactive)
Cc1cc(N/N=C/c2ccc(O)cc2O)nc(-n2nc(C)cc2C)n1	0.77 µM
O=C(COC(=O)c1ccc(Br)o1)NC1CCCCC1	9.79 µM
CCc1ccc(Cc2cnc(NC(=O)C3=NCCN3)s2)cc1	2.85 µM
CCOCCOC(=O)COc1ccc2c(-c3ccccc3)cc(=O)oc2c1	0.98 µM
CCOC(=O)COc1ccc2c(c1)C(=O)CC1(CCCCC1)O2	0.6 µM
O=C(N/N=C/c1cccc2nccnc12)c1ccncc1	1.13 µM
COc1ccc(CN2C(=O)/C(=C/c3ccncc3)SC2=S)cc1	39.3 µM (inactive)
O=C(COc1ccccc1)NC1CCCCC1	0.61 µM
COc1ccc2cc(C(=O)NCc3ccccc3)c(=O)oc2c1	39.3 µM (inactive)
CC(=O)c1cc2c(ccc3ccccc32)oc1=O	15.4 µM (inactive)
COc1cc(NCCC(=O)c2cccs2)c(OC)cc1Cl	4.04 µM

SMILES	IC50
CC(C)n1c(=S)[nH]c2ccccc2c1=O	14.2 µM (inactive)
CN1C(=O)/C(=C/c2cccc(Cl)c2)Sc2ccc(C(=O)N3CCCC3)cc21	22 µM (inactive)
CC1(C)CC(=O)C2=C(C1)OC(N)=C(C#N)C2C#Cc1ccccc1 (stereo unspecified)	4.07 µM
O=C(NNc1nc2cc3c(cc2s1)OCCO3)c1ccccc1	23.5 µM (inactive)
Clc1ccc(N=c2ssnc2Cl)nc1	3.45 µM
O=C(CCCSc1nc2ccccc2s1)NCc1ccco1	10.7 µM (inactive)
CCn1cc(C(=O)NC(C)C23CC4CC(CC(C4)C2)C3)cn1 (stereo unspecified)	2.73 µM
COC(=O)C1=C(C)N(Cc2ccccc2)C(=NCc2ccccc2)N[C@H]1c1cccc(F)c1	6.37 µM
COc1cccc2cc(C(=O)NCc3ccc(F)cc3)c(=N)oc12	8.67 µM
O=C(NC(=S)N1CCN(Cc2ccc3c(c2)OCO3)CC1)c1ccc(Cl)cc1	33.4 µM (inactive)
COC(=O)COc1ccc(-c2ccccc2)cc1C=O	8.95 µM
CCCCC1CCC(C(=O)Nc2ccc(S(=O)(=O)Nc3nccs3)cc2)CC1 (stereo unspecified)	7.7 µM
O=[N+]([O-])c1ccc(-c2nc3ccc([N+](=O)[O-])cc3[nH]2)cc1	16 µM (inactive)
CCCc1cc(C(=O)Nc2ccccc2SC)no1	12.1 µM (inactive)
O=C(COc1ccccc1)Nc1nnc(-c2ccc3c(c2)CCCC3)o1	0.9 µM
Nc1ccccc1C#CC(=O)c1ccccc1	< 0.1 µM
CCOC(=O)c1cc(-c2csc(COc3ccccc3Cl)n2)on1	< 0.1 µM
CN=C1S/C(=C\c2ccc(OCC(=O)OC)c(OC)c2)C(=O)N1C	16.5 µM (inactive)
CCOC(=O)COc1ccc(C2CC(C)=NN2c2ccccc2)cc1 (stereo unspecified)	2.55 µM
O=C(CCN1CCN(C/C=C/c2ccccc2)CC1)Nc1ccc(Cl)cc1	18.8 µM (inactive)
O=C(O)c1ccccc1C(=O)NNc1ccc(Cl)cc1	4.09 µM
O=C(Nc1ccccc1)c1cc2ccccc2o1	4.57 µM
C/C(=N\NC(=O)c1cccc(Cl)c1)C1C(=O)c2ccccc2C1=O	0.38 µM
CCOCCOC(=O)c1ccc(NC(=O)C2COc3ccccc3O2)cc1 (stereo unspecified)	4.16 µM

SMILES	IC50
CCC/C(=N\NC(=O)c1ccco1)c1ccc(Cl)s1	9.41 µM
CCOC(=O)C1CCN(CCCSc2ccc(Cl)cc2)CC1	46.4 µM (inactive)
CC1(c2nnc(-c3ccccc3)o2)CC(c2ccc(Cl)cc2)=NO1 (stereo unspecified)	1.52 µM
Cc1ccc(C(=O)CCC2CCCC2=O)cc1 (stereo unspecified)	14.4 µM (inactive)
Cc1cccc(C2=N/C(=C\c3cccnc3)C(=O)O2)c1	12.8 µM (inactive)
CC1=CC(C)(C)Nc2ccc(OC(=O)CN3C(=O)c4ccccc4C3=O)cc21	9.07 µM
COc1ccc(OCCOC(=O)c2cccs2)cc1	27.6 µM (inactive)
Cc1cc(Br)ccc1OCCCCN1CCC(C)CC1	9.63 µM
O=c1c2c([N+](=O)[O-])cc([N+](=O)[O-])cc2sn1-c1ccc(Br)cc1	18.5 µM (inactive)
COC(=O)COc1cccc(NC(=O)c2cccc(C)c2)c1	9.25 µM
COc1cccc(NC(=O)c2ccc(Cn3cc([N+](=O)[O-])cn3)o2)c1	7.57 µM
O=C(COC(=O)C1CC2C=CC1C2)Nc1ccccc1 (stereo unspecified)	35.7 µM (inactive)
CCC(=O)c1ccc(OC(=O)c2ccc(Br)o2)cc1	9.81 µM
c1ccc(CSc2ccc(-c3ccccn3)nn2)cc1	8.02 µM
O=C1CC(N2CCC(c3nc4ccccc4o3)CC2)C(=O)N1 (stereo unspecified)	16.3 µM (inactive)
CC(C)c1ccc(OCC(=O)NNC(=O)c2cnccn2)cc1	11.9 µM (inactive)
CN1CCN(c2ccc(NC(=O)c3ccc(-c4ccc(Cl)cc4)o3)cc2)CC1	5.1 µM
COc1ccc(-c2noc(-c3cc4ccccc4oc3=O)n2)cc1	5.06 µM
CC12CC3CC(C)(C1)CC(C(=O)N1CCCC1)(C3)C2	24 µM (inactive)
O=C(CNC(=O)c1ccccc1Cl)N/N=C/c1ccc([N+](=O)[O-])s1	23.5 µM (inactive)
Cc1[nH]c2ccccc2c1C(=O)C(C)OC(=O)c1ccc([N+](=O)[O-])o1 (stereo unspecified)	1.07 µM
O=C1NC(=O)C(=Cc2ccc(-c3ccc(Cl)cc3)o2)C(=O)N1	< 0.1 µM
Cc1ccc(C(=O)N/N=C/c2cccc3ccccc23)cn1	5.95 µM
O=C(Nc1nc2c(F)cc(F)cc2s1)c1ccccn1	2.12 µM

SMILES	IC50
O=C(NCCCN1CCOCC1)c1ccc(CSc2ccc(Cl)cc2)cc1	29 µM (inactive)
O=C(Nc1nccs1)c1cc2cc(Cl)ccc2oc1=O	3.23 µM
COC(=O)C1=C(N)OC2=C(C(=O)CC(C)(C)C2)C1c1cccnc1 (stereo unspecified)	14.5 µM (inactive)
CCCCCC1CC(CC(=O)NC(=S)Nc2ccc([N+](=O)[O-])cc2)C(=O)O1 (stereo unspecified)	6.68 µM
COc1ccc(NC(=O)COc2ccccc2)cc1Cl	22.2 µM (inactive)
O=C(NCc1ccccc1)c1cc2ccccc2oc1=O	43.8 µM (inactive)
COc1ccccc1NC(=O)c1ccc([N+](=O)[O-])o1	1.12 µM
Cc1[nH]c2ccccc2c1C(=O)COC(=O)c1ccc([N+](=O)[O-])s1	0.65 µM
CN(C)CCCn1c(=O)n(C2CCCCC2)c(=O)c2c3c(sc21)CCCCC3	20.7 µM (inactive)
COc1ccc(-c2nc3ccc(C)cc3c(=O)o2)cc1OC	2.95 µM
Cc1ccccc1-n1sc2cc(F)ccc2c1=O	9.85 µM
CC(C)CN1C(=O)CC(Sc2ccccc2C(=O)O)C1=O (stereo unspecified)	26.7 µM (inactive)
O=C(c1ccccc1)c1nc[nH]c1C(=O)Nc1ccccc1	11.5 µM (inactive)
O=C(Nc1ccccc1N1CCCC1)c1cccc(F)c1	24.4 µM (inactive)
O=C(Nc1nnc(-c2ccc(Br)cc2)o1)c1ccco1	11.4 µM (inactive)
O=C(N/N=C/c1ccc([N+](=O)[O-])s1)c1cccnc1	4.48 µM
Cc1cc(OCCOCCNCc2ccccc2)ccc1C(C)C	15.1 µM (inactive)
CCCCn1c(=O)c(C(=O)Nc2nnc(C(C)C)s2)c(O)c2ccccc21	1.87 µM
Clc1cccc(/C=N\Nc2nccs2)c1	12 µM (inactive)
COc1ccc(/C=C2\Sc3ccc(C(=O)NCCN4CCCCCC4)cc3N(C)C2=O)cc1	12.7 µM (inactive)

From PubChem BioAssay AID488890 (Southern Research Specialized Biocontainment Screening …, 2010)
